Assay results: US12558334B2, “Controlled nutrient delivery to pancreatic islets using a novel mesoporous silica-based nanoparticle platform” (The Board of Trustees of the Leland Stanford Junior …, priority 2019, dated 2026)

Legend:
islets = conditions: reported in the literature; cited from earlier work
[1] = reported in the literature; cited from earlier work
pancreatic islets [2] = test: Islet viability, Live/Dead assay; type: cell-based, C57BL/6 mice; conditions: day 7; glutamine 10 mM
Experimental: (§1) All mice within this study were treated in accordance with the guidelines approved by the Institutional Animal Care and Use Committee (IACUC) at Stanford University. Animals were housed under conventional conditions having access to food and water ad libitum. Pancreatic islets were isolated from C57BL/6 mice (male, 6-8-week-old, Charles River Laboratories, USA), as previously described.^9 In brief, the common bile duct was cannulated with a 30G needle and the pancreas distended with 3 mL of cold collagenase solution (Fischer Scientific, USA). The pancreas was removed and islets isolated by digesting the pancreas at 37° C. for 10 min. The islets were purified using histopaque-density gradients. […]
After 7 days of incubation with PDG-MSNPs, the viability of islets was assessed using Live/Dead and 3-(4,5-Dimethylthiazol-2-yl)-2,5-diphenyltetrazolium bromide (MTT) assays. Islets were labeled using fluorescein diacetate (FDA; for live cells (green fluorescence), Thermo Fisher Scientific, USA) and propidium iodide (PI; for dead cells (red fluorescence), Thermo Fisher Scientific, USA) as the Live/Dead staining solution. […] A minimum of 8 islets per experimental group were analyzed using Image-J/FIJI to quantify live and dead fluorescence within islets and the percentage of live islet were presented.

pancreatic islets [3] = test: Islet function, GSIS assay (insulin secretion); type: cell-based, C57BL/6 mice; conditions: 7 days; glutamine 10 mM; 16.7 mM glucose
Experimental: as §1
Islets supplemented with PDG-MSNPs were cultured in a humidified incubator under normal conditions (37° C./5% CO2/20% O2). After 7 days of incubation with PDG-MSNPs, the ability of islets to secrete insulin was assessed by exposing them to low glucose (i.e. basal conditions) and high glucose (i.e. stimulated conditions) media (200 μL/well). […] The supernatants were collected at the end of incubation for both basal and stimulated condition and insulin levels were quantified using a mouse insulin ELISA kit (Mercodia Developing Diagnostics, USA). […]

[4] = system: diabetic mice transplanted with islets; test: Islet transplantation under kidney capsule of STZ diabetic mice, metabolic analysis; type: in vivo, C57BL/6 mice

| SMILES | Cyto-protective effects on islets (islets) | Decreased inflammation (islets) | Enhanced islet function (islets) | Enhanced islet survival (islets) | Maintained function of various organs [1] | islet viability (Live/Dead) (pancreatic islets [2]) [%] | insulin secretion following stimulation with high glucose medium (pancreatic islets [3]) [ng/mL] | non-fasting blood glucose level (BGL) ([4]; day 30 post-transplantation) [mg/dL] | AUC0-20 min of IPGTT ([4]; fasting IPGTT) [mg·min/dL] | IPGTT peak incremental value following glucose injection ([4]; fasting IPGTT, glucose 2 g/kg i.p., peak at 30 min) [mg/dL] | body weight ([4]; week 4) [g] |
| --- | --- | --- | --- | --- | --- | --- | --- | --- | --- | --- | --- |
| C[C@H](N)C(=O)O [Alanine] | No | No | Yes | Yes | No | – | – | – | – | – | – |
| N=C(N)NCCC[C@H](N)C(=O)O [Arginine] | No | No | Yes | No | No | – | – | – | – | – | – |
| N[C@@H](CS)C(=O)O [Cysteine] | Yes | No | No | No | No | – | – | – | – | – | – |
| NC(=O)CC[C@H](N)C(=O)O [Glutamine, glutamine] | Yes | Yes | Yes | Yes | – | 77.1±2.6 | 8.1 ± 0.3 | 337 ± 84 | 26935 ± 1347 | 238 ± 12 | 20.7 ± 0.9 |
| N[C@@H](CCS)C(=O)O [Homocysteine] | No | No | No | No | No | – | – | – | – | – | – |
| CC[C@H](C)[C@H](N)C(=O)O [Isoleucine] | No | No | Yes | No | No | – | – | – | – | – | – |
| CC(C)C[C@H](N)C(=O)O [Leucine] | Yes | No | Yes | No | – | – | – | – | – | – | – |
| NCCCC[C@H](N)C(=O)O [Lysine] | No | No | Yes | No | No | – | – | – | – | – | – |
| CSCC[C@H](N)C(=O)O [Methionine] | No | No | No | No | No | – | – | – | – | – | – |
| O=C(O)[C@@H]1CCCN1 [Proline] | No | No | Yes | No | No | – | – | – | – | – | – |
| N[C@@H](Cc1c[nH]c2ccccc12)C(=O)O [Tryptophan] | No | No | Yes | Yes | No | – | – | – | – | – | – |
